Several values for one entry are separate records, joined by “and”; a condition that tells them apart may be missing. Identical values can stand only once.
Key:
rePON1 = rePON1 with 5-alkyl butyrolactones, taken from Ref. 4; cited from earlier work
[1] = system: recombinant PON1 variant rePON1-G2E6; settings: substrate hydrolysis by rePON1; 50 mM Tris pH 8.0, 1 mM CaCl2, 50 mM NaCl; DTNB detection
Experimental: The kinetic parameters of enzymatic hydrolysis of the three TXBLs by PON1 were determined by detecting the released thiol moiety with DTNB.
Kinetics were performed with recombinant PON1 variant rePON1-G2E6 expressed in fusion with a thioredoxin and 6×His tag, and purified as described^[19].
Kinetic measurements with DTNB—The rates of enzymatic hydrolyses of the thioalkyl-substituted lactones were determined in 50 mM Tris pH 8.0 with 1 mM CaCl2 and 50 mM NaCl (activity buffer). The enzyme stocks were kept in activity buffer containing 0.1% tergitol, and the enzyme concentration used was 8.375×10^−9 M. Stocks of 100-400 mM of substrates were prepared in acetonitrile and diluted with the reaction buffer immediately before initializing the reaction. […] The substrate concentrations were varied in the range of 0.3×KM up to (2-3)×KM. The co-solvent percentage was kept at 1% in all reactions. The DTNB dye (Ellman's reagent, 5′,5-dithio bis(2-nitrobenzoic acid) was used from 100 mM stock in DMSO, at a final concentration of 0.5 mM. An ε412 nm=7000 OD/M was used to calculate the activity. Product formation was monitored spectrophotometrically at 412 nm in 200 μl reaction volumes, using 96-well plates, on a microtiter plate reader (PowerWave HT™ Microplate Scanning Spectrophotometer; optical length ˜0.5 cm). Initial velocities (v0) were determined at eight different concentrations for each substrate. v0 values were corrected for the background rate of spontaneous hydrolysis in the absence of enzyme. Kinetic parameters (kcat, KM, kcat/KM) were obtained by fitting the data to the Michaelis-Menten equation [v0=kcat[E]0[S]0/([S]0+KM)], using the program Kaleidagraph 5.0.

PON1 in human sera [2] = target: T1, PON1 in human sera (Homo sapiens, UniProt P27169); assay: Serum lactonase activity with TBBL (DTNB, 412 nm), with and without inhibitors; assay type: biochemical
T1 sequence (P27169 whole entry): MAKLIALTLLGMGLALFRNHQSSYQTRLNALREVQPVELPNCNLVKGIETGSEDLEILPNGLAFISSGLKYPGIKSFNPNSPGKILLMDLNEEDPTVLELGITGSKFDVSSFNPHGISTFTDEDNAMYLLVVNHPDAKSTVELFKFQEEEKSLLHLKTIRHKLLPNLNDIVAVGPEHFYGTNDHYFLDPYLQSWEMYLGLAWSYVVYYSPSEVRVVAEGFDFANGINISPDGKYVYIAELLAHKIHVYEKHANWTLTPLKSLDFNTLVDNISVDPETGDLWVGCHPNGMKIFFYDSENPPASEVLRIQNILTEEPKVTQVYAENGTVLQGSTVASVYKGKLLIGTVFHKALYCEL
Experimental: (§1) Hydrolysis of phenyl acetate was monitored directly by absorbance at 270 nm (FIG. 2b).
(§2) The reaction mixtures of phenyl acetate contained 1 mM phenyl acetate from 500 mM stock in methanol. All the reaction mixtures contained final 1% DMSO. […] The serum was incubated with the inhibitors for 5-10 minutes before the initiation of the reaction.
(§3) In parallel, we the PON1 activity was determined with phenyl acetate, which is routinely used as a probe for PON1 levels in the serum.

PON1 in human sera [3] = target: T1, PON1 in human sera; settings: samples #1 and #2
Experimental: as §1, §2, §3

PON3 = assay: Lactonase activity of PON3 in purified enzyme samples and crude cell lysates; assay type: biochemical; settings: data not shown
[4] = system: E. coli cells expressing recombinant PON1 (rePON1); assay: Detection of PON1 lactonase activity in living cells by FACS in w/o/w emulsions with TBBL and CPM; assay type: cell-based; settings: TBBL with thiol-detecting dye CPM, emission at 530 nm, single E. coli cells in w/o/w emulsion
Source text: Shown are representative histograms of the fluorescent emission at 530 nm (the thiol-CPM adduct) for single cells expressing GFP and PON1 (white), and control cells with GFP only (grey).
PON1 activity was also detected in living cells, using FACS (fluorescence-activated cell sorter) and emulsion droplets that compartmentalize the cells together with the products of the enzymatic activity^[15, 16]. […] The w/o emulsion was then re-emulsified, to generate the w/o/w double emulsion with a continuous water phase that is amenable to FACS^[15]. The FACS triggering threshold was set for the emission of GFP, and an appropriate gate was chosen corresponding to the level of emission of single E. coli cells^[16]. […] A clear difference (>20-fold in mean fluorescence) was observed relative to cells bearing no rePON1

PON1 in human sera [5] = target: T1, PON1 in human sera; assay: biochemical; settings: read-out: Serum activity with 1 mM phenyl acetate, 100 μM HQ (% of uninhibited activity), human serum 1:400 pre-incubated with 100 μM HQ; samples #1 and #2
Experimental: as §1, §2, §3

[6] = human serum 1:400 pre-incubated with 5 mM EDTA

## CCCCCCCC1CCC(=O)O1 (stereo not drawn) [γ-undecanoic lactone]
rePON1
  Km: 600 ± 70 µM
  kcat: 62 ± 2 s⁻¹

## CCCCCC1CCC(=O)O1 (stereo not drawn) [γ-nonanoic lactone]
rePON1
  Km: 390 ± 30 µM
  kcat: 31 ± 2 s⁻¹

## CCCCCCSC1CCC(=O)O1 (stereo not drawn) [THBL, 5-hexylsulfanyl-dihydro-furan-2-one]
[1]
  Km: 350 ± 30 µM
  kcat: 52.4 ± 2.6 s⁻¹

## O=C(O)CN(CCN(CC(=O)O)CC(=O)O)CC(=O)O [EDTA]
PON1 in human sera [2]; human serum 1:400 pre-incubated with 5 mM EDTA, samples #1 and #2
  Serum activity with 0.5 mM TBBL, 5 mM EDTA: 0.04 ± 0.01 μM product/min and 0.06 ± 0.01 μM product/min
PON1 in human sera [2]; serum lactonase (TBBL) and aryl esterase (phenyl acetate) activities, 5 mM EDTA
  inhibition rates by EDTA: > 99%
PON1 in human sera [3]; [6]
  Serum activity with 1 mM phenyl acetate, 5 mM EDTA: ~0 μM product/min
  Serum activity with 1 mM phenyl acetate, 5 mM EDTA (% of uninhibited activity): (0%)

## CCSC1CCC(=O)O1 (stereo not drawn) [TEBL, 5-ethylsulfanyl-dihydro-furan-2-one]
[1]
  Km: 360 ± 50 µM
  kcat: 161 ± 10 s⁻¹
PON3
  lactonase activity of PON3 assayed with the substrate: could be assayed

## CCCCSC1CCC(=O)O1 (stereo not drawn) [TBBL, 5-butylsulfanyl-dihydro-furan-2-one]
[1]
  Km: 270 ± 40 µM
  kcat: 116 ± 4 s⁻¹
[4]
  difference in mean fluorescence relative to cells bearing no rePON1: > 20 fold
PON3
  lactonase activity of PON3 assayed with the substrate: could be assayed

## Oc1ccc2ccccc2n1 [HQ, 2-hydroxyquinoline]
PON1 in human sera [2]; human serum 1:400 pre-incubated with 100 μM HQ, samples #1 and #2
  Serum activity with 0.5 mM TBBL, 100 μM HQ: 2.09 ± 0.04 μM product/min and 1.80 ± 0.01 μM product/min
PON1 in human sera [2]; read-out: Serum activity with 0.5 mM TBBL, 100 μM HQ (% of uninhibited activity), human serum 1:400 pre-incubated with 100 μM HQ, samples #1 and #2
  activity at 100 µM: 8.6%
PON1 in human sera [3]; human serum 1:400 pre-incubated with 100 μM HQ
  Serum activity with 1 mM phenyl acetate, 100 μM HQ: 5.9 ± 0.4 μM product/min and 3.9 ± 0.3 μM product/min
PON1 in human sera [5]
  activity at 100 µM: 4.9%

Source: patent US20090305239A1, “Methods and compositions for determing a level of biologically active serum paraoxonase” (priority 2005, published 2009)
